Where two headings read alike, the source gives them in different places.
Assays:
[1] = system: Mycosphaerella graminicola; anamorph: Septoria tritici; assay: Fungicidal activity: leaf blotch of wheat (SEPTTR), wheat seedlings; format: in vivo; conditions: Zymoseptoria tritici, 100 ppm, wheat
Procedure: Evaluation of Fungicidal Activity: Leaf Blotch of Wheat (Mycosphaerella Graminicola; Anamorph: Septoria tritici; Bayer Code […]) Technical grades of materials were dissolved in acetone, which were then mixed with nine volumes of water containing 110 ppm Triton X-100. The fungicide solutions were applied onto wheat seedlings using an automated booth sprayer to run-off. All sprayed plants were allowed to air dry prior to further handling. Wheat plants (variety Yuma) were grown from seed in a greenhouse in 50% mineral soil/50% soil-less Metro mix until the first leaf was fully emerged, with 7-10 seedlings per pot. These plants were inoculated with an aqueous spore suspension of Septoria tritici either prior to or after fungicide treatments. After inoculation the plants were kept in 100% relative humidity (one day in a dark dew chamber followed by two to three days in a lighted dew chamber at 20° C.) to permit spores to germinate and infect the leaf. The plants were then transferred to a greenhouse set at 20° C. for disease to develop. When disease symptoms were fully expressed on the 1st leaves of untreated plants, infection levels were assessed on a scale of 0 to 100 percent disease severity. Percent disease control was calculated using the ratio of disease severity on treated plants relative to untreated plants.

[2] = system: Puccinia triticina; synonym: Puccinia recondita f. sp. tritici; assay: Fungicidal activity: wheat brown rust (PUCCRT), wheat seedlings; format: in vivo; conditions: 100 ppm, wheat
Procedure: Technical grades of materials were dissolved in acetone, which were then mixed with nine volumes of water containing 110 ppm Triton X-100. The fungicide solutions were applied onto wheat seedlings using an automated booth sprayer to run-off. All sprayed plants were allowed to air dry prior to further handling. Wheat plants (variety Yuma) were grown from seed in a greenhouse in 50% mineral soil/50% soil-less Metro mix until the first leaf was fully emerged, with 7-10 seedlings per pot. These plants were inoculated with an aqueous spore suspension of Septoria tritici either prior to or after fungicide treatments. After inoculation the plants were kept in 100% relative humidity (one day in a dark dew chamber followed by two to three days in a lighted dew chamber at 20° C.) to permit spores to germinate and infect the leaf. The plants were then transferred to a greenhouse set at 20° C. for disease to develop. When disease symptoms were fully expressed on the 1st leaves of untreated plants, infection levels were assessed on a scale of 0 to 100 percent disease severity. Percent disease control was calculated using the ratio of disease severity on treated plants relative to untreated plants. Evaluation of Fungicidal Activity: Wheat Brown Rust (Puccinia […]; Synonym: Puccinia recondita f. Sp. Tritici; Bayer Code PUCCRT) Wheat plants (variety Yuma) were grown from seed in a greenhouse in 50% mineral soil/50% soil-less Metro mix until the first leaf was fully emerged, with 7-10 seedlings per pot. These plants were inoculated with an aqueous spore suspension of Puccinia triticina either prior to or after fungicide treatments. After inoculation the plants were kept in a dark dew room at 22° C. with 100% relative humidity overnight to permit spores to germinate and infect the leaf. The plants were then transferred to a greenhouse set at 24° C. for disease to develop. Fungicide formulation, application and disease assessment followed the procedures as described in the Example A.

[3] = 24 h, 1 Day Protectant, read-out: Disease Control SEPTTR 1DP
[4] = 72 h, 3 Day Curative, read-out: Disease Control SEPTTR 3DC
[5] = 24 h, 1 Day Protectant, read-out: Disease Control PUCCRT 1DP
[6] = 72 h, 3 Day Curative, read-out: Disease Control PUCCRT 3DC

| SMILES | pest or weed control at 100 ppm [1, 3] | pest or weed control at 100 ppm [1, 4] | pest or weed control at 100 ppm [2, 5] | pest or weed control at 100 ppm [2, 6] |
| --- | --- | --- | --- | --- |
| CCCO[C@H]1[C@H](C)OC(=O)[C@@H](NC(=O)c2nccc(OC)c2O)COC[C@@H]1Oc1ccccc1 [Compound 203] | 80 to 100% | 80 to 100% | 80 to 100% | 80 to 100% |
| COc1ccnc(C(=O)N[C@H]2COC[C@H](OC3CCCC3)[C@@H](Oc3ccccc3)[C@H](C)OC2=O)c1O [Compound 204] | 80 to 100% | 80 to 100% | 80 to 100% | 80 to 100% |
| COc1ccnc(C(=O)N[C@H]2COC[C@H](Oc3ccccc3)[C@@H](OC3CCCC3)[C@H](C)OC2=O)c1O [Compound 205] | 80 to 100% | 80 to 100% | 80 to 100% | 80 to 100% |
| COc1ccnc(C(=O)N[C@H]2COC[C@H](Oc3ccc(C)cc3)[C@@H](Oc3ccc(C)cc3)[C@H](C)OC2=O)c1O [Compound 206] | 80 to 100% | 80 to 100% | 80 to 100% | 80 to 100% |
| COc1ccnc(C(=O)N[C@H]2COC[C@H](Oc3ccc(F)cc3)[C@@H](OCC(C)C)[C@H](C)OC2=O)c1O [Compound 207] | 80 to 100% | 80 to 100% | 80 to 100% | 80 to 100% |
| COc1ccnc(C(=O)N[C@H]2COC[C@H](Oc3ccc(F)cc3)[C@@H](Oc3ccc(F)cc3)[C@H](C)OC2=O)c1O [Compound 208] | 80 to 100% | 0 to 80% | 80 to 100% | – |
| COc1ccnc(C(=O)N[C@H]2COC[C@H](Oc3ccccc3)[C@@H](O)[C@H](C)OC2=O)c1O [Compound 211] | – | 0 to 80% | 0 to 80% | – |
| COc1ccnc(C(=O)N[C@H]2COC[C@H](Oc3ccccc3)[C@@H](OCC=C3CCCCC3)[C@H](C)OC2=O)c1O [Compound 212] | 80 to 100% | 0 to 80% | 80 to 100% | 0 to 80% |
| CCOCC(=O)OCOc1c(OC)ccnc1C(=O)N[C@H]1COC[C@H](Oc2ccc(OC)cc2)[C@@H](Oc2ccc(OC)cc2)[C@H](C)OC1=O [Compound 219] | 80 to 100% | 0 to 80% | 80 to 100% | 80 to 100% |
| COc1ccc(O[C@H]2[C@H](C)OC(=O)[C@@H](NC(=O)c3nccc(OC)c3OCOC(C)=O)COC[C@@H]2Oc2ccc(OC)cc2)cc1 [Compound 220] | 80 to 100% | 80 to 100% | 80 to 100% | 80 to 100% |
| COc1ccnc(C(=O)N[C@H]2COC[C@H](OC3CCCC3)[C@@H](Oc3ccccc3)[C@H](C)OC2=O)c1OCOC(C)=O [Compound 223] | 80 to 100% | 80 to 100% | 80 to 100% | 80 to 100% |
| COc1ccnc(C(=O)N[C@H]2COC[C@H](Oc3ccccc3)[C@@H](OC3CCCC3)[C@H](C)OC2=O)c1OCOC(C)=O [Compound 224] | 80 to 100% | 80 to 100% | 80 to 100% | 80 to 100% |
| CCOCC(=O)OCOc1c(OC)ccnc1C(=O)N[C@H]1COC[C@H](Oc2ccc(C)cc2)[C@@H](Oc2ccc(C)cc2)[C@H](C)OC1=O [Compound 225] | 80 to 100% | 80 to 100% | 80 to 100% | 80 to 100% |
| COc1ccnc(C(=O)N[C@H]2COC[C@H](Oc3ccc(C)cc3)[C@@H](Oc3ccc(C)cc3)[C@H](C)OC2=O)c1OCOC(C)=O [Compound 226] | 80 to 100% | 80 to 100% | 80 to 100% | 80 to 100% |

Reference: patent US9144239B2, “Macrocyclic picolinamides as fungicides” (DOW AGROSCIENCES LLC, priority 2012, dated 2015)
